PMC2408617, “Gametogenesis in Malaria Parasites Is Mediated by the cGMP-Dependent Protein Kinase” (PLoS Biology, 2008)
“Also recorded” adds a separate entry of the source.

What was measured:
[1] = system: P. falciparum asexual blood stages; test: Asexual parasite growth inhibition, [3H]-hypoxanthine incorporation; format: cell-based, Plasmodium falciparum; conditions: unpublished data
Description: Asexual parasite growth assays were carried out to obtain the IC50 of test compounds using inhibition of incorporation of [^3H]-hypoxanthine, and to compare growth rates between transfected clones. Briefly, in 96-well plates, each test well was dosed at early trophozoite stage with 10 μl of [^3H]-hypoxanthine (GE Healthcare) to a final concentration of 0.2 μCi. The radioactivity of the [^3H]-hypoxanthine incorporated into parasite nucleic acid over 24 h was determined relative to the WT controls using a Wallac 1450 Microbeta scintillation β-counter (Perkin-Elmer). This assay was done in triplicate and repeated at least three times.

PfPKGT618Q = target: T1, PfPKGT618Q (Plasmodium falciparum, UniProt Q8I719, T618Q); test: Recombinant PKG activity assay, T618Q mutant; format: biochemical
T1 construct: The gene encoding full-length PfPKG was cloned into the pTrcHis expression plasmid (Invitrogen); His tag (from pTrcHis vector); made in house; host or cells: Escherichia coli
T1 sequence (Q8I719 whole entry T618Q): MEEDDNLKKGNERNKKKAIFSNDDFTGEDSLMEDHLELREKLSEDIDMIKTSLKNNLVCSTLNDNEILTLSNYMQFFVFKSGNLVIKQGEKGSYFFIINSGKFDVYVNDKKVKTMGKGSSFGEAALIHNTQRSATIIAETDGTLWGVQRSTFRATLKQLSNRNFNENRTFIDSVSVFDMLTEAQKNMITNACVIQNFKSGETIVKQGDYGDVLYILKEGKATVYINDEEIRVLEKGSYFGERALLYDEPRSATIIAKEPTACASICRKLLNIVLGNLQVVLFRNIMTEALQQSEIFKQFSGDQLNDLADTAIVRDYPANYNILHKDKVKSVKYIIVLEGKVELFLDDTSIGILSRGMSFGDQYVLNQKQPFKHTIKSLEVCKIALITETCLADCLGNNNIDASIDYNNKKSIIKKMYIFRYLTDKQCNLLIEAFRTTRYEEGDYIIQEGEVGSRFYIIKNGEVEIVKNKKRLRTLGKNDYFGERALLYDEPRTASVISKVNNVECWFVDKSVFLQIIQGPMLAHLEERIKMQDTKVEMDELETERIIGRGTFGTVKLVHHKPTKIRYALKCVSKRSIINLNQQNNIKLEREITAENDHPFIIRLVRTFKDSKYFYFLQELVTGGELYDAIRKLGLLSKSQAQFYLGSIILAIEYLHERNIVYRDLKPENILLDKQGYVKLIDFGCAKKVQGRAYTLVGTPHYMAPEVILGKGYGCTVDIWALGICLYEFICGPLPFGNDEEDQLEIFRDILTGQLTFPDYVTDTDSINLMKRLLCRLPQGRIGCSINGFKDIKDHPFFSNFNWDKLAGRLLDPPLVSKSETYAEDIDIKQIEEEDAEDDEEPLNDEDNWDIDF
Excerpt: (§1) Figure 4 Substitution of a Key Active Site Threonine Residue Confers Compound 1 Insensitivity to Recombinant PfPKG (A) An alignment of regions of PfPKG in the ATP-binding pocket, thought to interact with compound 1, with those of other apicomplexans. Conserved active site residues highlighted in grey were predicted to approach compound 1 in a model of the Eimeria tenella PKG [29] (EtPKG). The threonine residue (T618), substituted in PfPKG in this study, is highlighted in grey and marked with an asterisk. Amino acid sequences are numbered to the right of the blocks of sequence. (B) Dose-response curves showing the effect of compound 1 on recombinant PKG enzyme activity assayed in the presence of 10 μM cGMP. Red diamonds indicate full-length WT PfPKG; black triangles, mutated PfPKG with T618 replaced by a glutamine residue; and blue squares, mutated PfPKG with T618 replaced by a methionine residue.
(§2) The activity of recombinant and native PKG was measured using a modification of standard procedures. The gene encoding full-length PfPKG was cloned into the pTrcHis expression plasmid (Invitrogen). Substitution of specific amino acids of PfPKG was carried out using a QuickChange Multi Site-Directed Mutagenesis kit (Stratagene) according to the manufacturer's instructions. Expression, affinity purification of E. coli–expressed recombinant proteins, and PKG activity assays were performed as previously described. All experiments were performed at least twice in triplicate. PKG measurements in native P. falciparum proteins were performed using an adaptation of a previously described assay. Briefly, ring stage parasites were exposed to 0.15% saponin solution in PBS to free the parasites from their host cells. […] Radiolabelled peptide was detected on 96-well multiscreen phosphocellulose plates (MAPH-NOB; Millipore) by scintillation counting on a Wallac 1450 Microbeta scintillation β-counter (Perkin-Elmer). […]

PfPKGT618M = target: T2, PfPKGT618M (Plasmodium falciparum, UniProt Q8I719, T618M); test: Recombinant PKG activity assay, T618M mutant; format: biochemical; conditions: versus WT
T2 construct: The gene encoding full-length PfPKG was cloned into the pTrcHis expression plasmid (Invitrogen); His tag (from pTrcHis vector); made in house; host or cells: Escherichia coli
T2 sequence (Q8I719 whole entry T618M): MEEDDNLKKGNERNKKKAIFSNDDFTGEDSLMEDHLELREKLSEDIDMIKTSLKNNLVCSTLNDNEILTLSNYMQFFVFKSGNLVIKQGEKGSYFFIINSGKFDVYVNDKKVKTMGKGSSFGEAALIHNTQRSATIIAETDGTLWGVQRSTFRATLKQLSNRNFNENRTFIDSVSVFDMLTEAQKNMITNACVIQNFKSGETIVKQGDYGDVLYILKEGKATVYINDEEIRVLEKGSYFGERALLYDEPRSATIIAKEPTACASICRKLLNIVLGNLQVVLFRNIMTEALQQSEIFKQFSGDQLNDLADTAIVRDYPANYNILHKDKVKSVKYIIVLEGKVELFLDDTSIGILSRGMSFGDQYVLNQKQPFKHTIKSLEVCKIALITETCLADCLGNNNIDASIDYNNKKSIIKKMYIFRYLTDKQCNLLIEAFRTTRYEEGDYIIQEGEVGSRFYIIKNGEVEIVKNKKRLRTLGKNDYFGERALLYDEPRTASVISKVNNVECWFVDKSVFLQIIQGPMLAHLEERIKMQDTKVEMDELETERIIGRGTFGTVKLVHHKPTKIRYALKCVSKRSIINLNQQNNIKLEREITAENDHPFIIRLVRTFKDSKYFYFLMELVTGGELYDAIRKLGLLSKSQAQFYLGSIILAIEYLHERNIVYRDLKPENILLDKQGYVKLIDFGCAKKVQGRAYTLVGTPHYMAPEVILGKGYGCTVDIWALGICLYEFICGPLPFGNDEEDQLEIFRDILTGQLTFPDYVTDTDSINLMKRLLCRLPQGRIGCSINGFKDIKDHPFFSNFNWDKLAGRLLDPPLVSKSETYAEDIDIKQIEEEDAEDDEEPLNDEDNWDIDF
Excerpt: as §1
The activity of recombinant and native PKG was measured using a modification of standard procedures. The gene encoding full-length PfPKG was cloned into the pTrcHis expression plasmid (Invitrogen). […] Radiolabelled peptide was detected on 96-well multiscreen phosphocellulose plates (MAPH-NOB; Millipore) by scintillation counting on a Wallac 1450 Microbeta scintillation β-counter (Perkin-Elmer). […]

[2] = system: P. falciparum gametocytes (WT / Pfrh3- control); test: Gametogenesis assay: rounding up, WT/control gametocytes; format: cell-based, Plasmodium falciparum
Description: (§3) P. falciparum gametocytes were produced from the 3D7 clone in human A+ erythrocytes with 10% human serum (National Blood Service), and enriched using Nycodenz (Nycoprep 1.077; Axis-Shield) centrifugation as previously described. For gametogenesis, cells were resuspended at 5 × 10^6 parasites per millilitre and induced with either 20 μM XA or 25–400 μM zaprinast in complete medium, and a reduction (of >5 °C) in temperature. For gametogenesis assays, 10 min post induction, cells were mounted on a wet smear. […] Test reagents including zaprinast, BAPTA-AM, compound 1, and compound 2 were resuspended in DMSO as stock solutions and diluted in complete medium for gametogenesis assays, with the XA stock resuspended in RPMI 1640. The maximum final DMSO concentration in the gametogenesis medium was 0.4%, which was used as a negative control. […] Compound 1 and compound 2 were added at the point of activation with either XA or zaprinast, whereas cells were preincubated with 100 μM BAPTA-AM as previously described. Statistical multivariate analysis was carried out using Poisson regression (Stata 9.2; StataCorp) to compare the effects of genetic background (mutant vs. WT) and experimental replicate (included as categorical data in the analysis) on the rates of rounding up at individual drug concentrations. For each drug concentration, the mutants were tested separately against the WT control, and the resultant output was anti-logged to give the relative risk (and 95% confidence interval) for rounding up with genetic background.

PfPKGT618Q gametocytes = test: Gametogenesis assay: rounding up, PfPKGT618Q gametocytes; format: cell-based, Plasmodium falciparum; conditions: for RR, relative risk of rounding up, T618Q vs WT: Poisson regression
Description: as §3
(§4) Supplementary file pbio.0060139.st002.doc: Table S2 Poisson Regression Analysis for Compound 1 Sensitivity of Rounding Up of Both Mutants Compared to WT Each rounding-up measurement was made by counting 200 cells and scoring for rounding up (or not rounding up). At each compound 1 concentration, rounding-up replicate counts for both clones were compared to WT values separately by Poisson regression analysis using the Stata 9.2 package (StataCorp). Where n < 2 (indicated by n.d.), data were excluded from the analysis. Compound 1 concentration (comp1) is shown in micromolar. The p-values from this analysis and the relative risk (RR) of rounding up with genetic background (and 95% confidence intervals [CI]) are shown. (38 KB DOC) Click here for additional data file.

PfPKGT618M gametocytes = test: Gametogenesis assay: rounding up, PfPKGT618M gametocytes; format: cell-based, Plasmodium falciparum; conditions: for RR, relative risk of rounding up, T618M vs WT: Poisson regression
Description: as §3, §4

[3] = system: P. falciparum gametocytes; test: Gametogenesis assay: exflagellation; format: cell-based, Plasmodium falciparum
Description: as §3

[4] = system: cGMP-dependent kinase activity in P. falciparum lysates; test: Native cGMP-dependent kinase activity in cell lysates; format: biochemical, Plasmodium falciparum; conditions: control versus PfPKGT618Q lysates
Description: as §2, with “cells. Both gametocyte and ring stage parasite pellets were lysed in HBS buffer (50 mM Hepes [pH 7.4], 1 mM EDTA, 1% Nonidet P-40, 10 mM NaF, 0.1 mM sodium orthovanadate, 1 mM dithiotreitol) supplemented with a 1/100 dilution of Sigma-Aldrich Protease Inhibitor Cocktail. Parasite lysis was confirmed by microscopic examination of Giemsa-stained thin smears.” for “cells.”

Eimeria = conditions: cited from earlier work
T. gondii = conditions: cited from earlier work
P. berghei = conditions: cited from earlier work
[5] = 1–5 μM compound, XA stimulation

**Q.** For CN1CCC(c2cc(-c3ccncc3)c(-c3ccc(F)cc3)[nH]2)CC1 [compound 1], which IC50 [1] is on record?
**A.** 2.7 ± 0.17 µM

**Q.** What about the IC50 (PfPKGT618Q; 10 μM cGMP, read-out: IC50, PfPKGT618Q recombinant enzyme) of the same molecule?
**A.** 17.8 ± 4.7 µM

**Q.** And the “less sensitive, PfPKGT618Q versus WT recombinant enzyme” value (PfPKGT618Q; ratio of IC50 values)?
**A.** over 3,000 times

**Q.** And the “decreased sensitivity conferred by T618Q in the recombinant protein” value (PfPKGT618Q; versus WT)?
**A.** > 3,000 fold

**Q.** And the “increase in sensitivity of T618M recombinant enzyme” value (PfPKGT618M)?
**A.** < 4 fold

**Q.** And the “gametocytes in which change of shape is prevented” value [2]?
**A.** over 90%

**Q.** And the “rounding up of control gametocytes” value [2, 5]?
**A.** reduced rounding up to background levels

**Q.** And the “inhibition of rounding up” value ([2]; control gametocytes stimulated with XA (or zaprinast))?
**A.** inhibited by compound 1 in a dose-dependent manner

**Q.** What about the “inhibitory effects on rounding up of PfPKGT618Q gametocytes” value (PfPKGT618Q gametocytes; 2 μM, stimulation with zaprinast or XA) of the same molecule?
**A.** absence of inhibitory effects

**Q.** And the “rounding up of PfPKGT618Q gametocytes” value (PfPKGT618Q gametocytes; [5])?
**A.** rounded up to almost normal levels

**Q.** What about the “RR, relative risk of rounding up, T618Q vs WT” value (from here on “RR, relative risk … T618Q vs WT”) (PfPKGT618Q gametocytes; compound 1 0.1 μM) of the same molecule?
**A.** 1.031

**Q.** What about the “RR, relative risk … T618Q vs WT” value (PfPKGT618Q gametocytes; compound 1 2 μM) of the same molecule?
**A.** 1.827

**Q.** What about the “RR, relative risk … T618Q vs WT” value (PfPKGT618Q gametocytes; compound 1 5 μM) of the same molecule?
**A.** 2.248

**Q.** And the “RR, relative risk … T618Q vs WT” value (PfPKGT618Q gametocytes; compound 1 6 μM)?
**A.** 1.974

**Q.** And the “RR, relative risk … T618Q vs WT” value (PfPKGT618Q gametocytes; compound 1 8 μM)?
**A.** 1.910

**Q.** And the “RR, relative risk … T618Q vs WT” value (PfPKGT618Q gametocytes; compound 1 10 μM)?
**A.** 1.649

**Q.** What about the “RR, relative risk … T618Q vs WT” value (PfPKGT618Q gametocytes; compound 1 20 μM) of the same molecule?
**A.** 1.283

**Q.** And the “lower sensitivity of PfPKGT618Q gametocytes than control cells (rounding up)” value (PfPKGT618Q gametocytes; range of inhibitor concentrations, approximately)?
**A.** 10–20 fold

**Q.** What about the “RR, relative risk of rounding up, T618M vs WT” value (“RR, relative risk … T618M vs WT” below) (PfPKGT618M gametocytes; compound 1 0.1 μM) of the same molecule?
**A.** 1.014

**Q.** And the “RR, relative risk … T618M vs WT” value (PfPKGT618M gametocytes; compound 1 2 μM)?
**A.** 1.020

**Q.** What about the “RR, relative risk … T618M vs WT” value (PfPKGT618M gametocytes; compound 1 4 μM) of the same molecule?
**A.** 0.946

**Q.** What about the “RR, relative risk … T618M vs WT” value (PfPKGT618M gametocytes; compound 1 5 μM) of the same molecule?
**A.** 1.010

**Q.** What about the “RR, relative risk … T618M vs WT” value (PfPKGT618M gametocytes; compound 1 6 μM) of the same molecule?
**A.** 1.002

**Q.** And the “RR, relative risk … T618M vs WT” value (PfPKGT618M gametocytes; compound 1 20 μM)?
**A.** 0.861

**Q.** What about the “difference in sensitivity of PfPKGT618M line compared to control cells” value (PfPKGT618M gametocytes; rounding up and exflagellation) of the same molecule?
**A.** no significant difference in sensitivity

**Q.** And the inhibition of exflagellation ([3]; gametocytes stimulated with XA or zaprinast)?
**A.** inhibited by compound 1 in a dose-dependent manner; also recorded: inhibited exflagellation in a dose-dependent manner

**Q.** And the “difference in sensitivity of exflagellation between control and PfPKGT618Q cell lines” value ([3]; unpublished data)?
**A.** no significant difference in sensitivity

**Q.** What about the “sensitivity of cGMP-dependent kinase activity in control and mutant lysates” value [4] of the same molecule?
**A.** equivalent levels of sensitivity

**Q.** And the “effect on Eimeria infection in chickens” value (Eimeria)?
**A.** cure

**Q.** What about the “effect on infection by T. gondii in mice” value (T. gondii) of the same molecule?
**A.** cure

**Q.** What about the “effect on P. berghei infections in mice” value (P. berghei) of the same molecule?
**A.** delays the onset
